Values of other authors as cited in patent US4230714A, “Imidazole therapeutic agents” (Pfizer Inc., priority 1978, dated 1980).

Key:
[1] = tested on: human blood platelet aggregation; conditions: variety of aggregating agents
[2] = tested on: platelet clumping and embolization in the lungs; conditions: rabbit, intravenous arachidonic acid
aggregation of platelets = conditions: rat, extra corporeal loop of the abdominal aorta

| SMILES | inhibitory activity against platelet aggregation in vitro [1] | protection from the lethal effect of arachidonic acid injection [2] | prevention of platelet aggregation in vivo (aggregation of platelets) |
| --- | --- | --- | --- |
| CC(=O)Oc1ccccc1C(=O)O [aspirin] | show inhibitory activity in vitro | protect the rabbit from the lethal effect of the injection |  |
| O=C1C(CC[S+]([O-])c2ccccc2)C(=O)N(c2ccccc2)N1c1ccccc1 (stereo not shown) [sulphinpyrazone] | show inhibitory activity in vitro |  | prevent the aggregation of platelets |
